Experimental data taken from patent publication US10076519B2 (CYTOKINETICS, INC., priority 2010, dated 2018).

System: rabbit skeletal myofibrils (fast skeletal myofibrils)
Assay: Activation of fast skeletal myofibrils (PUMA assay, PK/LDH-coupled ATPase at pCa25)
Assay type: biochemical
Details: AC1.4 determined according to the procedure of Example 39; reported as class symbols
Summary of the method: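 Detergent-washed rabbit psoas myofibrils (~90% fast fibres, calcium-regulated) assayed at calcium giving 25% of maximal ATPase rate (pCa25). ADP turnover coupled via pyruvate kinase/lactate dehydrogenase to NADH oxidation, read at 340 nm. Buffer 12 mM PIPES, 2 mM MgCl2, 1 mM DTT, pH 6.8; AC1.4 values derived.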

**Q.** Which “Mean AC1.4” value does the source give for `CC(C)(CNc1ccc(-c2ccc3[nH]nc(N)c3c2)nn1)c1ncco1` [[6-(3-amino(1H-indazol-5-yl))pyridazin-3-yl](2-methyl-2-(1,3-oxazol-2-yl)propyl)amine] here?
**A.** Its value is “D (D=>20 uM)”.

**Q.** `CC(CNc1ccc(-c2ccc3[nH]nc(N)c3c2)nn1)N1CCCCC1` (centres unmarked) [[6-(3-amino(1H-indazol-5-yl))pyridazin-3-yl](2-piperidylpropyl)amine] was tested. Which “Mean AC1.4” value did it give?
**A.** Its value is “D (D=>20 uM)”.

**Q.** With `Nc1n[nH]c2ccc(-c3ccc(NCC(F)(F)c4ccc(F)cc4)nn3)cc12` [[6-(3-amino(1H-indazol-5-yl))pyridazin-3-yl][2,2-difluoro-2-(4-fluorophenyl)ethyl]amine] as the compound, how does the “Mean AC1.4” value read?
**A.** Its value is “B (B=1-10 uM)”.

**Q.** Which “Mean AC1.4” value does the source give for `CC(C)(CNc1ccc(-c2ccc3[nH]nc(N)c3c2)nn1)c1ncc(F)cc1F` [[6-(3-amino(1H-indazol-5-yl))pyridazin-3-yl][2-(3,5-difluoro(2-pyridyl))-2-methylpropyl]amine] here?
**A.** Its value is “A (A=<1 uM)”.

**Q.** With `CC(C)(CNc1ccc(-c2ccc3[nH]nc(N)c3c2)nn1)c1ncccc1F` [[6-(3-amino(1H-indazol-5-yl))pyridazin-3-yl][2-(3-fluoro(2-pyridyl))-2-methylpropyl]amine] as the compound, how does the “Mean AC1.4” value read?
**A.** The value was “B (B=1-10 uM)”.

**Q.** With `COc1cccc(C(C)(C)CNc2ccc(-c3ccc4[nH]nc(N)c4c3)nn2)c1` [[6-(3-amino(1H-indazol-5-yl))pyridazin-3-yl][2-(3-methoxyphenyl)-2-methylpropyl]amine] as the compound, how does the “Mean AC1.4” value read?
**A.** Its value is “A (A=<1 uM)”.

**Q.** With `CC(C)(CNc1ccc(-c2ccc3[nH]nc(N)c3c2)nn1)c1ccc(F)cc1` [[6-(3-amino(1H-indazol-5-yl))pyridazin-3-yl][2-(4-fluorophenyl)-2-methylpropyl]amine] as the compound, how does the “Mean AC1.4” value read?
**A.** The value was “A (A=<1 uM)”.

**Q.** With `CC(C)(CNc1ccc(-c2ccc3[nH]nc(N)c3c2)nn1)c1ccc(F)cn1` [[6-(3-amino(1H-indazol-5-yl))pyridazin-3-yl][2-(5-fluoro(2-pyridyl))-2-methylpropyl]amine] as the compound, how does the “Mean AC1.4” value read?
**A.** Its value is “B (B=1-10 uM)”.

**Q.** Which “Mean AC1.4” value does the source give for `Cc1ccccc1C(C)(C)CNc1ccc(-c2ccc3[nH]nc(N)c3c2)nn1` [[6-(3-amino(1H-indazol-5-yl))pyridazin-3-yl][2-methyl-2-(2-methylphenyl)propyl]amine] here?
**A.** The value was “A (A=<1 uM)”.

**Q.** How did the “Mean AC1.4” value turn out when `Cc1ccc(C(C)(C)CNc2ccc(-c3ccc4[nH]nc(N)c4c3)nn2)cc1` [[6-(3-amino(1H-indazol-5-yl))pyridazin-3-yl][2-methyl-2-(4-methylphenyl)propyl]amine] was run?
**A.** The value was “A (A=<1 uM)”.

**Q.** `COCc1ccccc1C(C)(C)CNc1ccc(-c2ccc3[nH]nc(N)c3c2)nn1` [[6-(3-amino(1H-indazol-5-yl))pyridazin-3-yl]{2-[2-(methoxymethyl)phenyl]-2-methylpropyl}amine] was tested. Which “Mean AC1.4” value did it give?
**A.** Its value is “C (C=10-20 uM)”.

**Q.** How did the “Mean AC1.4” value turn out when `CC(C)(CNc1ccc(-c2ccc3[nH]nc(N)c3c2)nn1)c1cccc(CN)c1` [[6-(3-amino(1H-indazol-5-yl))pyridazin-3-yl]{2-[3-(aminomethyl)phenyl]-2-methylpropyl}amine] was run?
**A.** The value was “C (C=10-20 uM)”.

**Q.** With `CC(C)(CNc1ccc(-c2ccc3[nH]nc(N)c3c2)nn1)c1ccc(CN)cc1` [[6-(3-amino(1H-indazol-5-yl))pyridazin-3-yl]{2-[4-(aminomethyl)phenyl]-2-methylpropyl}amine] as the compound, how does the “Mean AC1.4” value read?
**A.** Its value is “D (D=>20 uM)”.

**Q.** For `Nc1n[nH]c2ccc(-c3ccc(NCC4(c5ccccc5F)CCC4)nn3)cc12` [[6-(3-amino(1H-indazol-5-yl))pyridazin-3-yl]{[(2-fluorophenyl)cyclobutyl]meth-yl}amine], which “Mean AC1.4” value is on record?
**A.** Its value is “A (A=<1 uM)”.

**Q.** Which “Mean AC1.4” value does the source give for `Nc1n[nH]c2ccc(-c3ccc(NCC4(c5ccccc5F)CCCC4)nn3)cc12` [[6-(3-amino(1H-indazol-5-yl))pyridazin-3-yl]{[(2-fluorophenyl)cyclopentyl]meth-yl}amine] here?
**A.** The value was “A (A=<1 uM)”.

**Q.** Which “Mean AC1.4” value does the source give for `Nc1n[nH]c2ccc(-c3ccc(NCC4(c5ccccc5F)CC4)nn3)cc12` [[6-(3-amino(1H-indazol-5-yl))pyridazin-3-yl]{[(2-fluorophenyl)cyclopropyl]meth-yl}amine] here?
**A.** Its value is “A (A=<1 uM)”.

**Q.** How did the “Mean AC1.4” value turn out when `Nc1n[nH]c2ccc(-c3ccc(NCC4(c5ncccc5F)CCC4)nn3)cc12` [[6-(3-amino(1H-indazol-5-yl))pyridazin-3-yl]{[(3-fluoro(2-pyridyl))cyclobutyl]methyl}amine] was run?
**A.** The value was “A (A=<1 uM)”.

**Q.** For `Nc1n[nH]c2ccc(-c3ccc(NCC4(c5ccc(F)cc5)CCC4)nn3)cc12` [[6-(3-amino(1H-indazol-5-yl))pyridazin-3-yl]{[(4-fluorophenyl)cyclobutyl]meth-yl}amine], which “Mean AC1.4” value is on record?
**A.** Its value is “A (A=<1 uM)”.

**Q.** Which “Mean AC1.4” value does the source give for `Nc1n[nH]c2ccc(-c3ccc(NCC4(c5ccc(F)cc5)CCCCC4)nn3)cc12` [[6-(3-amino(1H-indazol-5-yl))pyridazin-3-yl]{[(4-fluorophenyl)cyclohexyl]meth-yl}amine] here?
**A.** Its value is “A (A=<1 uM)”.

**Q.** Which “Mean AC1.4” value does the source give for `Nc1n[nH]c2ccc(-c3ccc(NCC4(c5ccc(F)cc5)CCCC4)nn3)cc12` [[6-(3-amino(1H-indazol-5-yl))pyridazin-3-yl]{[(4-fluorophenyl)cyclopentyl]meth-yl}amine] here?
**A.** The value was “A (A=<1 uM)”.

**Q.** For `Nc1n[nH]c2ccc(-c3ccc(NCC4(c5ccc(F)cc5)CC4)nn3)cc12` [[6-(3-amino(1H-indazol-5-yl))pyridazin-3-yl]{[(4-fluorophenyl)cyclopropyl]meth-yl}amine], which “Mean AC1.4” value is on record?
**A.** The value was “A (A=<1 uM)”.

**Q.** How did the “Mean AC1.4” value turn out when `Nc1n[nH]c2ccc(-c3ccc(NCC4(c5ccc(F)cn5)CCC4)nn3)cc12` [[6-(3-amino(1H-indazol-5-yl))pyridazin-3-yl]{[(5-fluoro(2-pyridyl))cyclobutyl]methyl}amine] was run?
**A.** Its value is “A (A=<1 uM)”.

**Q.** With `CC(C)(CNc1ccc(-c2ccc3c(N)n[nH]c3c2)nn1)c1ncccc1F` [[6-(3-amino(1H-indazol-6-yl))pyridazin-3-yl][2-(3-fluoro(2-pyridyl))-2-methylpropyl]amine] as the compound, how does the “Mean AC1.4” value read?
**A.** The value was “B (B=1-10 uM)”.

**Q.** For `CC(C)(CNc1ccc(-c2ccc3c(N)n[nH]c3c2)nn1)c1ccc(F)cc1` [[6-(3-amino(1H-indazol-6-yl))pyridazin-3-yl][2-(4-fluorophenyl)-2-methylpropyl]amine], which “Mean AC1.4” value is on record?
**A.** The value was “A (A=<1 uM)”.

**Q.** With `CC(C)(CNc1ccc(-c2ccc3c(N)n[nH]c3c2)nn1)c1ccc(F)cn1` [[6-(3-amino(1H-indazol-6-yl))pyridazin-3-yl][2-(5-fluoro(2-pyridyl))-2-methylpropyl]amine] as the compound, how does the “Mean AC1.4” value read?
**A.** The value was “C (C=10-20 uM)”.

**Q.** With `CC(C)(CNc1ccc(-c2cccc3c(N)n[nH]c23)nn1)c1ccc(F)cc1` [[6-(3-amino(1H-indazol-7-yl))pyridazin-3-yl][2-(4-fluorophenyl)-2-methylpropyl]amine] as the compound, how does the “Mean AC1.4” value read?
**A.** Its value is “B (B=1-10 uM)”.

**Q.** With `Cn1nc(N)c2cc(-c3ccc(NCC(C)(C)c4ccc(F)cc4)nn3)ccc21` [[6-(3-amino-1-methyl(1H-indazol-5-yl))pyridazin-3-yl][2-(4-fluorophenyl)-2-methylpropyl]amine] as the compound, how does the “Mean AC1.4” value read?
**A.** Its value is “B (B=1-10 uM)”.

**Q.** Which “Mean AC1.4” value does the source give for `CC(C)(CNc1ccc(-c2ccc3onc(N)c3c2)nn1)c1ccc(F)cc1` [[6-(3-aminobenzo[3,4-d]isoxazol-5-yl)pyridazin-3-yl][2-(4-fluorophenyl)-2-methylpropyl]amine] here?
**A.** The value was “B (B=1-10 uM)”.

**Q.** For `CC(C)(CNc1ccc(-c2ccc3c(N)noc3c2)nn1)c1ccc(F)cc1` [[6-(3-aminobenzo[d]isoxazol-6-yl)pyridazin-3-yl][2-(4-fluorophenyl)-2-methylpropyl]amine], which “Mean AC1.4” value is on record?
**A.** The value was “A (A=<1 uM)”.

**Q.** With `CC(C)(CNc1ccc(-c2cccc(N)c2)nn1)c1ccc(F)cc1` [[6-(3-aminophenyl)pyridazin-3-yl][2-(4-fluorophenyl)-2-methylpropyl]amine] as the compound, how does the “Mean AC1.4” value read?
**A.** Its value is “A (A=<1 uM)”.

**Q.** How did the “Mean AC1.4” value turn out when `Nc1cccc(-c2ccc(NCC3(c4ncccc4F)CCC3)nn2)c1` [[6-(3-aminophenyl)pyridazin-3-yl]{[(3-fluoro(2-pyridyl))cyclobutyl]methyl}amine] was run?
**A.** Its value is “A (A=<1 uM)”.

**Q.** `CC(C)(CNc1ccc(-c2cccc(Cl)c2)nn1)c1ccc(F)cc1` [[6-(3-chlorophenyl)pyridazin-3-yl][2-(4-fluorophenyl)-2-methylpropyl]amine] was tested. Which “Mean AC1.4” value did it give?
**A.** The value was “A (A=<1 uM)”.

**Q.** How did the “Mean AC1.4” value turn out when `CCc1n[nH]c2ccc(-c3ccc(NCC(C)(C)c4ccc(F)cc4)nn3)cc12` [[6-(3-ethyl(1H-indazol-5-yl))pyridazin-3-yl][2-(4-fluorophenyl)-2-methylpropyl]amine] was run?
**A.** The value was “B (B=1-10 uM)”.

**Q.** `Nc1ccc(-c2ccc(NCC3(c4ncccc4F)CCC3)nn2)cc1F` [[6-(4-amino-3-fluorophenyl)pyridazin-3-yl]{[(3-fluoro(2-pyridyl))cyclobutyl]meth-yl}amine] was tested. Which “Mean AC1.4” value did it give?
**A.** Its value is “A (A=<1 uM)”.

**Q.** How did the “Mean AC1.4” value turn out when `CC(C)(CNc1ccc(-c2ccc(N)cc2)nn1)c1ccc(F)cc1` [[6-(4-aminophenyl)pyridazin-3-yl][2-(4-fluorophenyl)-2-methylpropyl]amine] was run?
**A.** Its value is “A (A=<1 uM)”.

**Q.** With `Nc1ccc(-c2ccc(NCC3(c4ncccc4F)CCC3)nn2)cc1` [[6-(4-aminophenyl)pyridazin-3-yl]{[(3-fluoro(2-pyridyl))cyclobutyl]methyl}amine] as the compound, how does the “Mean AC1.4” value read?
**A.** Its value is “A (A=<1 uM)”.

**Q.** How did the “Mean AC1.4” value turn out when `CC(C)(CNc1ccc(-c2ccc(Cl)cc2)nn1)c1ccc(F)cc1` [[6-(4-chlorophenyl)pyridazin-3-yl][2-(4-fluorophenyl)-2-methylpropyl]amine] was run?
**A.** The value was “B (B=1-10 uM)”.

Same assay, conditions: median AC1.4 class, procedure of Example 39

**Q.** How did the “Mean AC1.4” value turn out when `Nc1n[nH]c2ccc(-c3ccc(NC4(c5ncccc5F)CCC4)nn3)cc12` [[6-(3-amino(1H-indazol-5-yl))pyridazin-3-yl][(3-fluoro(2-pyridyl))cyclobutyl]amine] was run?
**A.** Its value is “B (B=1-10 uM)”.

**Q.** `Nc1n[nH]c2ccc(-c3ccc(NC[C@]4(c5ncccc5F)C[C@H](F)C4)nn3)cc12` [[6-(3-amino(1H-indazol-5-yl))pyridazin-3-yl]{[3-fluoro-1-(3-fluoro(2-pyridyl))cyclobutyl]methyl}amine] was tested. Which “Mean AC1.4” value did it give?
**A.** Its value is “A (A=<1 uM)”.

**Q.** `Fc1cccnc1C1(CNc2ccc(-c3ncccc3Cl)nn2)CCC1` [[6-(3-chloro(2-pyridyl))pyridazin-3-yl]{[(3-fluoro(2-pyridyl))cyclobutyl]methyl}amine] was tested. Which “Mean AC1.4” value did it give?
**A.** The value was “C (C=10-20 uM)”.

**Q.** With `Fc1ccc(C2(Nc3ccc(-c4ccncc4F)nn3)CCC2)cc1` [[6-(3-fluoro(4-pyridyl))pyridazin-3-yl][(4-fluorophenyl)cyclobutyl]amine] as the compound, how does the “Mean AC1.4” value read?
**A.** The value was “B (B=1-10 uM)”.
